In patent US3955959A, “Herbicide for use in transplanted rice” (priority 1974, dated 1976):

Key:
Assay in all cases: Example 6 weed control, JAAPR, Japan
Assay type in all cases: in vivo
Sp (Sagittaria pygmaea) = details: Normal season
Protocol: (§1) In this example, the efficacy of Herbicide A is presented for a variety of weeds in the presence of ordinary and infant transplant rice. In this example, tests were conducted at the said JAAPR Lab at different times of the year. "Early season" transplants were made in April and "Normal season" transplants were made in July. The size of the transplants at the respective seasons were: Season Seedling Type Plant Height (cm) Leaf Stage ______________________________________ Early Ordinary 16.5 4.5 Early Infant 9.1 2.4 Normal Ordinary 41.7 5.3 Normal Infant 14.7 1.9 ______________________________________
(§2) Duplicate treatments were used. At the time of application of the herbicide, the status of the grass (EC) was as follows: […]

Cd (Cyperus difformis) = system: Cd (Cyperus difformis)
Protocol: as §1, §2

[1] = system: Ec (Echinochloa crusgalli)
Protocol: as §1, §2

Lp (Lindernia pyxidaria) = system: Lp (Lindernia pyxidaria)
Protocol: as §1, §2

Sh (Scirpus hotarui) = details: Normal season
Protocol: as §1, §2

[2] = system: Mv (Monochoria vaginalis)
Protocol: as §1, §2

[3] = system: Obw (other broadleaf weeds); details: ordinary
Protocol: as §1, §2

Ri (Rotala indica) = system: Ri (Rotala indica)
Protocol: as §1, §2

Et (Elatine triandra) = system: Et (Elatine triandra)
Protocol: as §1, §2

[4] = Early season, ordinary, 1.0 kg/ha, 3 DAT
[5] = Early season, ordinary, 1.0 kg/ha, 12 DAT
[6] = Early season, ordinary, 1.0 kg/ha, -2 DAT
[7] = Early season, ordinary, .5 kg/ha, 3 DAT
[8] = Early season, ordinary, .5 kg/ha, 12 DAT
[9] = Early season, ordinary, .5 kg/ha, -2 DAT
[10] = Normal season, infant, 1.0 kg/ha, 3 DAT
[11] = Normal season, infant, 1.0 kg/ha, 7 DAT
[12] = Normal season, infant, 1.0 kg/ha, -2 DAT
[13] = Normal season, infant, .5 kg/ha, 3 DAT
[14] = Normal season, infant, .5 kg/ha, 7 DAT
[15] = Normal season, infant, .5 kg/ha, -2 DAT
[16] = Normal season, ordinary, 1.0 kg/ha, 3 DAT
[17] = Normal season, ordinary, 1.0 kg/ha, 7 DAT
[18] = Normal season, ordinary, 1.0 kg/ha, -2 DAT
[19] = Normal season, ordinary, .5 kg/ha, 3 DAT
[20] = Normal season, ordinary, .5 kg/ha, 7 DAT
[21] = Normal season, ordinary, .5 kg/ha, -2 DAT

SMILES: CCCCOCN(C(=O)CCl)c1c(C)cccc1C(C)(C)C [Herbicide A, n-(butoxymethyl)-6'-tert-butyl-2-chloro-o-acetotoluidide]
- % Weed Control (Sp) (Sp (Sagittaria pygmaea); infant, 1.0 kg/ha, 3 DAT): < 40%
- % Weed Control (Sp) (Sp (Sagittaria pygmaea); infant, 1.0 kg/ha, 7 DAT): < 40%
- % Weed Control (Sp) (Sp (Sagittaria pygmaea); infant, 1.0 kg/ha, -2 DAT): < 40%
- % Weed Control (Sp) (Sp (Sagittaria pygmaea); infant, .5 kg/ha, 3 DAT): < 40%
- % Weed Control (Sp) (Sp (Sagittaria pygmaea); infant, .5 kg/ha, 7 DAT): < 40%
- % Weed Control (Sp) (Sp (Sagittaria pygmaea); infant, .5 kg/ha, -2 DAT): < 40%
- % Weed Control (Sp) (Sp (Sagittaria pygmaea); ordinary, 1.0 kg/ha, 3 DAT): < 40%
- % Weed Control (Sp) (Sp (Sagittaria pygmaea); ordinary, 1.0 kg/ha, 7 DAT): < 40%
- % Weed Control (Sp) (Sp (Sagittaria pygmaea); ordinary, 1.0 kg/ha, -2 DAT): < 40%
- % Weed Control (Sp) (Sp (Sagittaria pygmaea); ordinary, .5 kg/ha, 3 DAT): < 40%
- % Weed Control (Sp) (Sp (Sagittaria pygmaea); ordinary, .5 kg/ha, 7 DAT): < 40%
- % Weed Control (Sp) (Sp (Sagittaria pygmaea); ordinary, .5 kg/ha, -2 DAT): < 40%
- % Weed Control (Cd) (Cd (Cyperus difformis); [4]): 100%
- % Weed Control (Cd) (Cd (Cyperus difformis); [5]): 100%
- % Weed Control (Cd) (Cd (Cyperus difformis); [6]): 100%
- % Weed Control (Cd) (Cd (Cyperus difformis); [7]): 100%
- % Weed Control (Cd) (Cd (Cyperus difformis); [8]): 100%
- % Weed Control (Cd) (Cd (Cyperus difformis); [9]): 100%
- % Weed Control (Cd) (Cd (Cyperus difformis); [10]): 100%
- % Weed Control (Cd) (Cd (Cyperus difformis); [11]): 100%
- % Weed Control (Cd) (Cd (Cyperus difformis); [12]): 100%
- % Weed Control (Cd) (Cd (Cyperus difformis); [13]): 100%
- % Weed Control (Cd) (Cd (Cyperus difformis); [14]): 100%
- % Weed Control (Cd) (Cd (Cyperus difformis); [15]): 100%
- % Weed Control (Cd) (Cd (Cyperus difformis); [16]): 100%
- % Weed Control (Cd) (Cd (Cyperus difformis); [17]): 100%
- % Weed Control (Cd) (Cd (Cyperus difformis); [18]): 100%
- % Weed Control (Cd) (Cd (Cyperus difformis); [19]): 100%
- % Weed Control (Cd) (Cd (Cyperus difformis); [20]): 100%
- % Weed Control (Cd) (Cd (Cyperus difformis); [21]): 100%
- % Weed Control (Ec) [1, 4]: 100%
- % Weed Control (Ec) [1, 5]: 100%
- % Weed Control (Ec) [1, 6]: 100%
- % Weed Control (Ec) [1, 7]: 100%
- % Weed Control (Ec) [1, 8]: 100%
- % Weed Control (Ec) [1, 9]: 100%
- % Weed Control (Ec) [1, 10]: 100%
- % Weed Control (Ec) [1, 11]: 100%
- % Weed Control (Ec) [1, 12]: 100%
- % Weed Control (Ec) [1, 13]: 100%
- % Weed Control (Ec) [1, 14]: 100%
- % Weed Control (Ec) [1, 15]: 100%
- % Weed Control (Ec) [1, 16]: 100%
- % Weed Control (Ec) [1, 17]: 100%
- % Weed Control (Ec) [1, 18]: 100%
- % Weed Control (Ec) [1, 19]: 100%
- % Weed Control (Ec) [1, 20]: 95%
- % Weed Control (Ec) [1, 21]: 100%
- % Weed Control (Lp) (Lp (Lindernia pyxidaria); [4]): 100%
- % Weed Control (Lp) (Lp (Lindernia pyxidaria); [5]): 95%
- % Weed Control (Lp) (Lp (Lindernia pyxidaria); [6]): 100%
- % Weed Control (Lp) (Lp (Lindernia pyxidaria); [7]): 100%
- % Weed Control (Lp) (Lp (Lindernia pyxidaria); [8]): 85%
- % Weed Control (Lp) (Lp (Lindernia pyxidaria); [9]): 100%
- % Weed Control (Lp) (Lp (Lindernia pyxidaria); [10]): 100%
- % Weed Control (Lp) (Lp (Lindernia pyxidaria); [11]): 100%
- % Weed Control (Lp) (Lp (Lindernia pyxidaria); [12]): 100%
- % Weed Control (Lp) (Lp (Lindernia pyxidaria); [13]): 100%
- % Weed Control (Lp) (Lp (Lindernia pyxidaria); [14]): 100%
- % Weed Control (Lp) (Lp (Lindernia pyxidaria); [15]): 100%
- % Weed Control (Lp) (Lp (Lindernia pyxidaria); [16]): 100%
- % Weed Control (Lp) (Lp (Lindernia pyxidaria); [17]): 100%
- % Weed Control (Lp) (Lp (Lindernia pyxidaria); [18]): 100%
- % Weed Control (Lp) (Lp (Lindernia pyxidaria); [19]): 100%
- % Weed Control (Lp) (Lp (Lindernia pyxidaria); [20]): 100%
- % Weed Control (Lp) (Lp (Lindernia pyxidaria); [21]): 100%
- % Weed Control (Sh) (Sh (Scirpus hotarui); infant, 1.0 kg/ha, 3 DAT): 100%
- % Weed Control (Sh) (Sh (Scirpus hotarui); infant, 1.0 kg/ha, 7 DAT): 100%
- % Weed Control (Sh) (Sh (Scirpus hotarui); infant, 1.0 kg/ha, -2 DAT): 100%
- % Weed Control (Sh) (Sh (Scirpus hotarui); infant, .5 kg/ha, 3 DAT): 100%
- % Weed Control (Sh) (Sh (Scirpus hotarui); infant, .5 kg/ha, 7 DAT): 100%
- % Weed Control (Sh) (Sh (Scirpus hotarui); infant, .5 kg/ha, -2 DAT): 100%
- % Weed Control (Sh) (Sh (Scirpus hotarui); ordinary, 1.0 kg/ha, 3 DAT): 100%
- % Weed Control (Sh) (Sh (Scirpus hotarui); ordinary, 1.0 kg/ha, 7 DAT): 100%
- % Weed Control (Sh) (Sh (Scirpus hotarui); ordinary, 1.0 kg/ha, -2 DAT): 100%
- % Weed Control (Sh) (Sh (Scirpus hotarui); ordinary, .5 kg/ha, 3 DAT): 100%
- % Weed Control (Sh) (Sh (Scirpus hotarui); ordinary, .5 kg/ha, 7 DAT): 100%
- % Weed Control (Sh) (Sh (Scirpus hotarui); ordinary, .5 kg/ha, -2 DAT): 100%
- % Weed Control (Mv) [2, 4]: 100%
- % Weed Control (Mv) [2, 5]: 95%
- % Weed Control (Mv) [2, 6]: 100%
- % Weed Control (Mv) [2, 7]: 95%
- % Weed Control (Mv) [2, 8]: 95%
- % Weed Control (Mv) [2, 9]: 95%
- % Weed Control (Mv) [2, 10]: 100%
- % Weed Control (Mv) [2, 11]: 85%
- % Weed Control (Mv) [2, 12]: 100%
- % Weed Control (Mv) [2, 13]: 100%
- % Weed Control (Mv) [2, 14]: 70%
- % Weed Control (Mv) [2, 15]: 100%
- % Weed Control (Mv) [2, 16]: 100%
- % Weed Control (Mv) [2, 17]: 100%
- % Weed Control (Mv) [2, 18]: 100%
- % Weed Control (Mv) [2, 19]: 100%
- % Weed Control (Mv) [2, 20]: 95%
- % Weed Control (Mv) [2, 21]: 100%
- % Weed Control (Obw) ([3]; Early season, 1.0 kg/ha, 3 DAT): 100%
- % Weed Control (Obw) ([3]; Early season, 1.0 kg/ha, 12 DAT): 50%
- % Weed Control (Obw) ([3]; Early season, 1.0 kg/ha, -2 DAT): 100%
- % Weed Control (Obw) ([3]; Early season, .5 kg/ha, 3 DAT): 100%
- % Weed Control (Obw) ([3]; Early season, .5 kg/ha, 12 DAT): 100%
- % Weed Control (Obw) ([3]; Early season, .5 kg/ha, -2 DAT): 100%
- % Weed Control (Obw) ([3]; Normal season, 1.0 kg/ha, 3 DAT): 100%
- % Weed Control (Obw) ([3]; Normal season, 1.0 kg/ha, 7 DAT): 100%
- % Weed Control (Obw) ([3]; Normal season, 1.0 kg/ha, -2 DAT): 100%
- % Weed Control (Obw) ([3]; Normal season, .5 kg/ha, 3 DAT): 100%
- % Weed Control (Obw) ([3]; Normal season, .5 kg/ha, 7 DAT): 100%
- % Weed Control (Obw) ([3]; Normal season, .5 kg/ha, -2 DAT): 100%
- % Weed Control (Ri) (Ri (Rotala indica); [4]): 100%
- % Weed Control (Ri) (Ri (Rotala indica); [5]): 100%
- % Weed Control (Ri) (Ri (Rotala indica); [6]): 100%
- % Weed Control (Ri) (Ri (Rotala indica); [7]): 100%
- % Weed Control (Ri) (Ri (Rotala indica); [8]): 100%
- % Weed Control (Ri) (Ri (Rotala indica); [9]): 100%
- % Weed Control (Ri) (Ri (Rotala indica); [10]): 100%
- % Weed Control (Ri) (Ri (Rotala indica); [11]): 100%
- % Weed Control (Ri) (Ri (Rotala indica); [12]): 100%
- % Weed Control (Ri) (Ri (Rotala indica); [13]): 100%
- % Weed Control (Ri) (Ri (Rotala indica); [14]): 100%
- % Weed Control (Ri) (Ri (Rotala indica); [15]): 100%
- % Weed Control (Ri) (Ri (Rotala indica); [16]): 100%
- % Weed Control (Ri) (Ri (Rotala indica); [17]): 100%
- % Weed Control (Ri) (Ri (Rotala indica); [18]): 100%
- % Weed Control (Ri) (Ri (Rotala indica); [19]): 100%
- % Weed Control (Ri) (Ri (Rotala indica); [20]): 100%
- % Weed Control (Ri) (Ri (Rotala indica); [21]): 100%
- % Weed Control (Et) (Et (Elatine triandra); [4]): 95%
- % Weed Control (Et) (Et (Elatine triandra); [5]): 70%
- % Weed Control (Et) (Et (Elatine triandra); [6]): 95%
- % Weed Control (Et) (Et (Elatine triandra); [7]): 70%
- % Weed Control (Et) (Et (Elatine triandra); [8]): < 40%
- % Weed Control (Et) (Et (Elatine triandra); [9]): 95%
- % Weed Control (Et) (Et (Elatine triandra); [10]): 100%
- % Weed Control (Et) (Et (Elatine triandra); [11]): 100%
- % Weed Control (Et) (Et (Elatine triandra); [12]): 100%
- % Weed Control (Et) (Et (Elatine triandra); [13]): 100%
- % Weed Control (Et) (Et (Elatine triandra); [14]): 100%
- % Weed Control (Et) (Et (Elatine triandra); [15]): 100%
- % Weed Control (Et) (Et (Elatine triandra); [16]): 100%
- % Weed Control (Et) (Et (Elatine triandra); [17]): 100%
- % Weed Control (Et) (Et (Elatine triandra); [18]): 100%
- % Weed Control (Et) (Et (Elatine triandra); [19]): 100%
- % Weed Control (Et) (Et (Elatine triandra); [20]): 100%
- % Weed Control (Et) (Et (Elatine triandra); [21]): 100%
